Literature values in patent US11208380B2, “Process for the purification of caprolactam from a solution of crude caprolactam without organic solvent extraction” (AquafilSLO d.o.o., priority 2017, dated 2021).

Compound	LD50, rat, oral administration [mg/kg]
c1ccccc1 [Benzene]	930
ClC=C(Cl)Cl [Trichloroethylene]	5400
